Values of other authors in patent publication US8604084B2, “Method” (GlaxoSmithKline, LLC, priority 2008, dated 2013).

SMILES: CC(=O)Nc1ccc(O)cc1 [Paracetamol]
- mean plasma half-life (adults): 2.4 h
- plasma half-life, range (adults): 1.5 to 3.0 h
- plasma protein binding (in vivo): not bound to plasma protein to any extent
- absolute oral bioavailability (independent of dose in the range of 5-20 mg/kg): about 80%
- volume of distribution (per body weight): about 0.9 litre/kilogram
